In US20220016241A1, “COMPOSITIONS AND METHODS FOR REDUCING ANTIGEN-SPECIFIC IMMUNOGENICITY” (The Research Foundation for The State University of New York, priority 2013, published 2022):

Columns and labels:
TNF-α = test: Cytokine profile of BMDCs in vitro, TNF-α ELISA; type: cell-based, HA mice; conditions: 1 μg/ml FVIII with 50 mM OPLS, 48 hours, n=4
Procedure: Generation of bone marrow derived dendritic cells (BMDC): Bone marrow was isolated from 6 to 8 week old naïve HA. Briefly, bone marrow was cultured in RPMI media supplemented with […] (low endotoxin), 2-mercaptoethanol, Pen/Strep and […] GMCSF. Media was changed on days 3, 6 and 8 of culture and DCs were used on day 9. BMDC are then harvested and used as needed. To verify the differentiation of bone marrow cells into DCs, CD11c surface expression was confirmed by flow cytometry using anti-CD11c-FITC antibody with appropriate isotope controls.
Effects of OPLS on cytokine profile of BMDCs in vitro: The effects of OPLS on cytokine secretion by dendritic cells were investigated. On day 9 BMDCs, generated as above, were treated with FVIII as an antigen in the presence of increasing dose of OPLS. Changes in production of pro-inflammatory cytokines TNF-α and IL12p70 as well as the regulatory cytokine TGF-β were monitored as a function of dose. BMDCs were exposed to 1 μg/ml FVIII with increasing dose of OPLS (0, 0.5, 1, 10, 25, 50 mM). 1 M stock of OPLS was prepared by adding the appropriate amount of OPLS directly to RPMI media, and pH was adjusted using sterile 3N and 1N NaOH. […] TGF-β, TNF-α and IL-12p70 concentrations were determined using standard ELISA (R&D System Inc. Minneapolis, Minn., USA or Invitrogen […], Calif.).

anti-FVIII titers = test: Effect of OPLS on in-vivo immunogenicity of FVIII after sc administration; parameters: species or system HA mice; conditions: days 1, 8, 10, 12
Procedure: Effect of OPLS on the immunogenicity of FVIII after SC administration in-vivo: 21 HA mice between 6 and 8 weeks of age were divided into 3 groups: group one received 1 ug FVIII SC in the abdominal region. Group two received 1 μg FVIII plus 0.4 mg OPLS SC in the abdominal region and group 3 received 1 μg FVIII plus 5 mg OPLS sc in the abdominal region. Incubation of FVIII with OPLS at 37° C. for 30 minutes ensures complexation, but for this example, OPLS and FVIII were combined at the desired concentrations at room temperature (22° C.) and immediately administered (within 1 minute). This treatment was given one day 1, 8, 10 and 12. Three days after the last injection the animals were sacrificed. Blood was centrifuged at 7500 rpm for 5 min at 4 degrees Celsius. Plasma was then removed and stored at −80 degrees Celsius until analysis.
Total titers were determined by classical standard ELISA. Anti-FVIII antibody (ESH8) was used as a control. Statistics was done on the arithmetic mean of the log transformed data, graphs are reported as geometric means. Non-responders were given the value of the plate specific factor for uniformity. […]
Statistics: Non-parametric one-way ANOVA with Tukey's post hoc analysis was used for the analysis of titer values where appropriate. Student t-test was used for comparing mean intensity of fluorescence (MIF) for flow cytomerty data. […]

anti-IgG antibody titers = test: Effect of OPLS on human IgG immunogenicity; type: in vivo, mice; conditions: 0.4 mg OPLS with 1 μg human IgG s.c., days 1, 8, 10, 12
Procedure: Materials and Methods: 8 animals were used for this pilot study, 4 animals were injected with Human-IgG (Sigma) alone (1 μg) or with Human IgG plus OPLS (1 μg human IgG plus 0.4 mg OPLS). The study was done with 4 injections over 2 weeks period as follows: day 1, day 8, day 10 and day 12 followed by a 3 days washout period. ELISA was done to measure total titers. Briefly, Nunc-Maxisorb 96-well plates were coated overnight at 4° C. with 50 μl/well of 2.5 μg/ml Human IgG. Plates were then washed and blocked with 1% bovine serum albumin (blocking buffer). 50 μl/well of various dilutions of the sample were added to the plate and incubated at room temperature for 2 h. Plasma samples from animals exposes to a sham treatment (buffer only) served as controls. The plates were then washed and incubated with 50 μl of goat anti-mouse anti-body-HRP conjugate at a 1:50000 dilution in blocking buffer at room temperature for 1 h. Color was developed for 20 min with 100 μl of TMB solution. 100 μl of 2 N H2SO4 was used to stop the reaction. Optical density at […] was measured using a plate reader. Non-responders were given the value of the plate specific factor for uniformity.
In this pilot study, animals were injected with Human-IgG (Sigma) alone (1 μg) or with OPLS […]. […]

Structure (SMILES): N[C@@H](COP(=O)(O)O)C(=O)O [OPLS, O-Phospho-L-Serine]
- TNF-α production by BMDC (TNF-α): substantial reduction
- Total anti-FVIII titer (anti-FVIII titers; 1 μg FVIII with high dose OPLS (5 mg/injection) sc, geometric mean±SD): 5.34±5.8 arbitrary units
- Total anti-FVIII titer (anti-FVIII titers; 1 μg FVIII with low dose OPLS (0.4 mg/injection) sc, not statistically significant vs FVIII alone): 137±1.4 arbitrary titer units
- Anti-IgG antibody titers vs IgG alone (anti-IgG antibody titers): lower
